The assay concerns the target T1, HCV-NS5b (Hepatitis C virus genotype 1b, UniProt Q9WMX2).
T1 construct: (His)6 (C); made in house; host or cells: XL-1 cells (E. coli), IPTG-inducible plasmid, nickel-NTA purification
The assay can be described thus: HCV-NS5b enzyme assay (incorporation of radiolabeled UTP). It counts as biochemical. The note with it: for inhibition at 33 µM: enzyme inhibition at compound concentration of 33 uM; for inhibition at 100 µM: read-out: % inh@100, enzyme inhibition at compound concentration of 100 uM. The essentials:
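His6-tagged NS5b lacking the C-terminal 21 residues, expressed in XL-1 and Ni-NTA purified. Reaction at pH 7.5 with 5 mM MgCl2, 10 μM each NTP including [3H]-UTP and biotinylated HCV heteropolymeric template, 2 h at 37° C; SPA read-out; % inhibition at 100 and 33 uM versus no-compound control, background subtracted.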

For `O=C(O)c1ccc2c(c1)nc(-c1ccc3nc(-c4cc5cccc(O)c5o4)ccc3c1)n2C1CCCCC1` [Compound 411, 1-cyclohexyl-2-[2-(7-hydroxy-benzofuran-2-yl)-quinolin-6-yl]-1H-benzoimidazole-5-carboxylic acid], the inhibition at 33 µM is 78.1% and the inhibition at 100 µM was found to be 91.5%.

As to `O=C(O)c1ccc2c(c1)nc(-c1ccc3nc(-c4ccc5c(c4)OCO5)ccc3c1)n2C1CCCCC1` [Compound 412, 2-(2-benzo[1,3]dioxol-5-yl-quinolin-6-yl)-1-cyclohexyl-1H-benzoimidazole-5-carboxylic acid], the inhibition at 33 µM amounted to 98.4% and the inhibition at 100 µM is 100%.

Take `O=C(O)c1ccc2c(c1)nc(-c1ccc3nc(-c4cc5ccccc5o4)ccc3c1)n2C1CCCCC1` [Compound 413, 2-(2-benzofuran-2-yl-quinolin-6-yl)-1-cyclohexyl-1H-benzoimidazole-5-carboxylic acid]: the inhibition at 33 µM came to 95.5% and the inhibition at 100 µM is 100%.

Regarding `O=C(O)c1ccc2c(c1)nc(-c1ccc3nc(-c4cccc(OCCCN5CCCC5)c4)ccc3c1)n2C1CCCCC1` [Compound 414, 1-Cyclohexyl-2-{2-[3-(3-pyrrolidin-1-yl-propoxy)-phenyl]-quinolin-6-yl}-1H-benzoimidazole-5-carboxylic acid], the inhibition at 33 µM is 93.4% and the inhibition at 100 µM was found to be 96.8%.

In the case of `O=C(O)c1ccc(-c2ccc(Cl)cc2)c(-c2ccc3cc(-c4nc5cc(C(=O)O)ccc5n4C4CCCCC4)ccc3n2)c1` [Compound 415, 2-[2-(4-Carboxy-4′-chloro-biphen-2-yl)-quinolin-6-yl]-1-cyclohexyl-1H-benzoimidazole-5-carboxylic acid], the inhibition at 33 µM amounted to 101% and the inhibition at 100 µM was found to be 102%.

`Cc1nc(-c2ccc(Cl)cc2)sc1-c1ccc2cc(-c3nc4cc(C(=O)O)ccc4n3C3CCCCC3)ccc2n1` [Compound 416, 2-{2-[2-(4-chloro-phenyl)-4-methyl-thiazol-5-yl]-quinolin-6-yl}-1-cyclohexyl-1H-benzoimidazole-5-carboxylic acid]: the inhibition at 33 µM worked out at 101% and the inhibition at 100 µM worked out at 103%.

For `Cc1cc(-c2nc3cc(C(=O)O)ccc3n2C2CCCCC2)cc2ccc(-c3ccccc3-c3ccc(Cl)cc3)nc12` [Compound 417, 2-[2-(4′-Chloro-biphen-2-yl)-8-methyl-quinolin-6-yl]-1-cyclohexyl-1H-benzoimidazole-5-carboxylic acid], the inhibition at 33 µM is 97.8% and the inhibition at 100 µM amounted to 98%.

With `Cc1cc(-c2ccc3cc(-c4nc5cc(C(=O)O)ccc5n4C4CCCCC4)ccc3n2)c(O)c([N+](=O)[O-])c1` [Compound 418, 1-cyclohexyl-2-[2-(2-hydroxy-5-methyl-3-nitro-phenyl)-quinolin-6-yl]-1H-benzoimidazole-5-carboxylic acid], the inhibition at 33 µM came to 104% and the inhibition at 100 µM came to 103%.

As for `COc1ccc(-c2ccc(C(=O)N3CCCC3)cc2-c2ccc3cc(-c4nc5cc(C(=O)O)ccc5n4C4CCCCC4)ccc3n2)cc1OC` [Compound 419, 1-Cyclohexyl-2-{2-[3′,4′-dimethoxy-4-(pyrrolidine-1-carbonyl)biphen-2-yl]quinolin-6-yl}-1H-benzimidazole-5-carboxylic acid], the inhibition at 33 µM stood at 101% and the inhibition at 100 µM was 101%.

As for `COc1ccc(-c2cccc([N+](=O)[O-])c2)c(-c2ccc3cc(-c4nc5cc(C(=O)O)ccc5n4C4CCCCC4)ccc3n2)c1` [Compound 420, 1-cyclohexyl-2-[2-(4-methoxy-3′-nitro-biphen-2-yl)-quinolin-6-yl]-1H-benzoimidazole-5-carboxylic acid], the inhibition at 33 µM amounted to 98.3% and the inhibition at 100 µM stood at 98.3%.

For `COc1ccc(-c2ccc(C(=O)O)cc2)c(-c2ccc3cc(-c4nc5cc(C(=O)O)ccc5n4C4CCCCC4)ccc3n2)c1` [Compound 421, 2-[2-(4′-carboxy-4-methoxy-biphen-2-yl)-quinolin-6-yl]-1-cyclohexyl-1H-benzoimidazole-5-carboxylic acid], the inhibition at 33 µM was found to be 100% and the inhibition at 100 µM is 100%.

Regarding `COc1ccc(-c2cccc(Cl)c2)c(-c2ccc3cc(-c4nc5cc(C(=O)O)ccc5n4C4CCCCC4)ccc3n2)c1` [Compound 422, 2-[2-(3′-chloro-4-methoxy-biphen-2-yl)-quinolin-6-yl]-1-cyclohexyl-1H-benzoimidazole-5-carboxylic acid], the inhibition at 33 µM turned out to be 98.8% and the inhibition at 100 µM worked out at 99.2%.

Regarding `O=C(O)c1ccc2c(c1)nc(-c1ccc3nc(-c4ccnc5ccccc45)ccc3c1)n2C1CCCCC1` [Compound 423, 2-[2,4′]biquinolinyl-6-yl-1-cyclohexyl-1H-benzoimidazole-5-carboxylic acid], the inhibition at 33 µM stood at 102% and the inhibition at 100 µM is 102%.

`O=C(O)c1ccc2c(c1)nc(-c1ccc3nc(-c4ccccc4Br)c(-c4ccccc4)cc3c1)n2C1CCCCC1` [Compound 424, 2-[2-(2-Bromo-phenyl)-3-phenyl-quinolin-6-yl]-1-cyclohexyl-1H-benzoimidazole-5-carboxylic acid]: the inhibition at 33 µM was 98.7% and the inhibition at 100 µM was 99.1%.

With `COc1cccc(-c2nc3ccc(-c4nc5cc(C(=O)O)ccc5n4C4CCCCC4)cc3nc2-c2cccc(OC)c2)c1` [Compound 425, 2-[2,3-Bis-(3-methoxyphenyl)quinoxalin-6-yl]-1-cyclohexyl-1H-benzimidazole-5-carboxylic acid], the inhibition at 33 µM turned out to be 96.2% and the inhibition at 100 µM is 98.2%.

Take `Cc1nc(C)c(-c2ccc3cc(-c4nc5cc(C(=O)O)ccc5n4C4CCCCC4)ccc3n2)s1` [Compound 426, 1-cyclohexyl-2-[2-(2,4-dimethyl-thiazol-5-yl)-quinolin-6-yl]-1H-benzoimidazole-5-carboxylic acid]: the inhibition at 33 µM was determined as 96.6% and the inhibition at 100 µM worked out at 102%.

As to `O=C(O)c1ccc2c(c1)nc(-c1ccc3nc(-c4ccccn4)ccc3c1)n2C1CCCCC1` [Compound 427, 1-cyclohexyl-2-(2-pyridin-2-yl-quinolin-6-yl)-1H-benzoimidazole-5-carboxylic acid], the inhibition at 33 µM came to 93.8% and the inhibition at 100 µM was determined as 98.4%.

For the compound `O=C(O)c1ccc2c(c1)nc(-c1ccc3nc(-c4ccc(Oc5ccccc5)cc4)ccc3c1)n2C1CCCCC1` [Compound 428, 1-cyclohexyl-2-[2-(4-phenoxy-phenyl)-quinolin-6-yl]-1H-benzoimidazole-5-carboxylic acid], the inhibition at 33 µM amounted to 98.8% and the inhibition at 100 µM was found to be 99.6%.

In the case of `O=C(O)c1ccc2c(c1)nc(-c1ccc3nc(-c4ccc(N5CCOCC5)cc4)ccc3c1)n2C1CCCCC1` [Compound 429, 1-cyclohexyl-2-[2-(4-morpholin-4-yl-phenyl)-quinolin-6-yl]-1H-benzoimidazole-5-carboxylic acid], the inhibition at 33 µM was 96.2% and the inhibition at 100 µM was determined as 101%.

`O=C(O)c1ccc2c(c1)nc(-c1ccc3nc(-c4cc(OCCCN5CCCC5)ccc4-c4ccccc4)ccc3c1)n2C1CCCCC1` [Compound 430, 1-Cyclohexyl-2-{2-[4-(3-pyrrolidin-1-yl-propoxy)-biphen-2-yl]-quinolin-6-yl}-1H-benzoimidazole-5-carboxylic acid]: the inhibition at 33 µM was determined as 98% and the inhibition at 100 µM is 96.7%.

Take `O=C(O)c1ccc2c(c1)nc(-c1ccc3nc(-c4cn(-c5cccnc5Cl)c(=O)[nH]c4=O)ccc3c1)n2C1CCCCC1` [Compound 431, 2-{2-[1-(2-chloro-pyridin-3-yl)-2,4-dioxo-1,2,3,4-tetrahydro-pyrimidin-5-yl]-quinolin-6-yl}-1-cyclohexyl-1H-benzoimidazole-5-carboxylic acid]: the inhibition at 33 µM turned out to be 95.3% and the inhibition at 100 µM was 96.4%.

`O=C(O)c1ccc2c(c1)nc(-c1ccc3nc(-c4cc[nH]c4)ccc3c1)n2C1CCCCC1` [Compound 432, 1-cyclohexyl-2-[2-(1H-pyrrol-3-yl)-quinolin-6-yl]-1H-benzoimidazole-5-carboxylic acid]: the inhibition at 33 µM amounted to 88.9% and the inhibition at 100 µM was found to be 96.4%.

Consider `O=C(O)c1ccc2c(c1)nc(-c1ccc3nc(-c4ccccc4)cc(Nc4ccccc4)c3c1)n2C1CCCCC1` [Compound 433, 1-cyclohexyl-2-(2-phenyl-4-phenylamino-quinolin-6-yl)-1H-benzoimidazole-5-carboxylic acid], for which the inhibition at 33 µM turned out to be 92.5% and the inhibition at 100 µM was found to be 100%.

On to `COc1cccc(O)c1-c1ccc2cc(-c3nc4cc(C(=O)O)ccc4n3C3CCCCC3)ccc2n1` [Compound 434, 1-cyclohexyl-2-[2-(2-hydroxy-6-methoxy-phenyl)-quinolin-6-yl]-1H-benzoimidazole-5-carboxylic acid], for which the inhibition at 33 µM came to 105% and the inhibition at 100 µM is 102%.

`O=C(O)c1ccc2c(c1)nc(-c1ccc3nc(-c4cc(C(=O)N5CCCC5)ccc4-c4ccc([N+](=O)[O-])cc4)ccc3c1)n2C1CCCCC1` [Compound 435, 1-cyclohexyl-2-{2-[4′-nitro-4-(pyrrolidine-1-carbonyl)biphen-2-yl]quinolin-6-yl}-1H-benzimidazole-5-carboxylic acid]: the inhibition at 33 µM was found to be 102% and the inhibition at 100 µM is 101%.

With `COc1ccc(-c2ccc(C(F)(F)F)cc2)c(-c2ccc3cc(-c4nc5cc(C(=O)O)ccc5n4C4CCCCC4)ccc3n2)c1` [Compound 436, 1-cyclohexyl-2-[2-(4-methoxy-4′-trifluoromethyl-biphen-2-yl)-quinolin-6-yl]-1H-benzoimidazole-5-carboxylic acid], the inhibition at 33 µM worked out at 98.8% and the inhibition at 100 µM is 99.3%.

Values taken from patent publication US7511145B2 (Genelabs Technologies, Inc., priority 2003, dated 2009).
